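The compound was tested at five concentrations on cells cultured in 96-well plates, with a 48-hour exposure period. GI50 = concentration required for 50% inhibition of growth.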 The source made the active and inactive calls. Rule as the data show it: active = GI50 up to about 1.1 µM and inactive = higher.
What was measured:
Test in all cases: NCI anticancer screen, dose series, 48 h
RXF 393 = test system: RXF 393
ACHN = test system: ACHN
SF-268 = test system: SF-268
T47D = test system: T47D
A498 = test system: A498
NCI-H23 = test system: NCI-H23
OVCAR-8 = test system: OVCAR-8
HCT-116 = test system: HCT-116
MDA-MB-435 = test system: MDA-MB-435
HOP-92 = test system: HOP-92
NCI-H226 = test system: NCI-H226
CAKI-1 = test system: CAKI-1
BT-549 = test system: BT-549
COLO 205 = test system: COLO 205
U-251 = test system: U-251
PC-3 = test system: PC-3
NCI-H522 = test system: NCI-H522
DU-145 = test system: DU-145
M14 = test system: M14
EKVX = test system: EKVX
SR = test system: SR
A549 = test system: A549
OVCAR-4 = test system: OVCAR-4
MDA-MB-231 = test system: MDA-MB-231
SNB-75 = test system: SNB-75
SW-620 = test system: SW-620
K562 = test system: K562
OVCAR-5 = test system: OVCAR-5
IGROV-1 = test system: IGROV-1
786-0 = test system: 786-0
HOP-62 = test system: HOP-62
UO-31 = test system: UO-31
NCI/ADR-RES = test system: NCI/ADR-RES
SNB-19 = test system: SNB-19
SF-539 = test system: SF-539
SK-OV-3 = test system: SK-OV-3
HCC 2998 = test system: HCC 2998
UACC-62 = test system: UACC-62
HCT-15 = test system: HCT-15
SK-MEL-28 = test system: SK-MEL-28
MCF7 = test system: MCF7
KM12 = test system: KM12
MOLT-4 = test system: MOLT-4
UACC-257 = test system: UACC-257
OVCAR-3 = test system: OVCAR-3
SF-295 = test system: SF-295
CCRF-CEM = test system: CCRF-CEM
MDA-N = test system: MDA-N
NCI-H460 = test system: NCI-H460
RPMI-8226 = test system: RPMI-8226
Malme-3M = test system: Malme-3M
SK-MEL-2 = test system: SK-MEL-2
TK-10 = test system: TK-10
SN12C = test system: SN12C
LOX IMVI = test system: LOX IMVI
SK-MEL-5 = test system: SK-MEL-5
HT-29 = test system: HT-29
HL-60 = test system: HL-60

## S=C(Nc1ccc(Br)cn1)NC12CC3CC(CC(C3)C1)C2
RXF 393
  GI50: 15.2 µM (inactive)
ACHN
  GI50: 13.2 µM (inactive)
SF-268
  GI50: 11.4 µM (inactive)
T47D
  GI50: 49.1 µM (inactive)
A498
  GI50: 33 µM (inactive)
NCI-H23
  GI50: 15.3 µM (inactive)
OVCAR-8
  GI50: 7.57 µM (inactive)
HCT-116
  GI50: 10.7 µM (inactive)
MDA-MB-435
  GI50: 92.9 µM (inactive)
HOP-92
  GI50: 7.18 µM (inactive)
NCI-H226
  GI50: 20.5 µM (inactive)
CAKI-1
  GI50: 35.9 µM (inactive)
BT-549
  GI50: > 10 µM (inactive)
COLO 205
  GI50: 62.2 µM (inactive)
U-251
  GI50: 11.3 µM (inactive)
PC-3
  GI50: 17 µM (inactive)
NCI-H522
  GI50: 11.2 µM (inactive)
DU-145
  GI50: 41.2 µM (inactive)
M14
  GI50: 46 µM (inactive)
EKVX
  GI50: 18.5 µM (inactive)
SR
  GI50: 36.1 µM (inactive)
A549
  GI50: 16.2 µM (inactive)
OVCAR-4
  GI50: 17.1 µM (inactive)
MDA-MB-231
  GI50: 17.8 µM (inactive)
SNB-75
  GI50: 13.9 µM (inactive)
SW-620
  GI50: 49.2 µM (inactive)
K562
  GI50: > 100 µM (inactive)
OVCAR-5
  GI50: 17.5 µM (inactive)
IGROV-1
  GI50: 8.59 µM (inactive)
786-0
  GI50: 8.05 µM (inactive)
HOP-62
  GI50: 23.9 µM (inactive)
UO-31
  GI50: 28.3 µM (inactive)
NCI/ADR-RES
  GI50: 17.4 µM (inactive)
SNB-19
  GI50: 11 µM (inactive)
SF-539
  GI50: 10.1 µM (inactive)
SK-OV-3
  GI50: 23.1 µM (inactive)
HCC 2998
  GI50: 19.4 µM (inactive)
UACC-62
  GI50: 17.5 µM (inactive)
HCT-15
  GI50: 68.7 µM
SK-MEL-28
  GI50: 39 µM (inactive)
MCF7
  GI50: 26.3 µM (inactive)
KM12
  GI50: > 100 µM (inactive)
MOLT-4
  GI50: 25.8 µM (inactive)
UACC-257
  GI50: 25.1 µM (inactive)
OVCAR-3
  GI50: 46.3 µM (inactive)
SF-295
  GI50: 17 µM (inactive)
CCRF-CEM
  GI50: 25.4 µM (inactive)
MDA-N
  GI50: 15.8 µM (inactive)
NCI-H460
  GI50: 28.5 µM (inactive)
RPMI-8226
  GI50: 65.2 µM (inactive)
Malme-3M
  GI50: 21.7 µM (inactive)
SK-MEL-2
  GI50: 22.3 µM (inactive)

## CCc1c(-c2ccccc2)[nH]c2ccccc2c1=O
RXF 393
  GI50: 27.1 µM (inactive)
ACHN
  GI50: 36.7 µM (inactive)
SF-268
  GI50: 80.7 µM (inactive)
T47D
  GI50: 46.5 µM (inactive)
A498
  GI50: 33.4 µM (inactive)
NCI-H23
  GI50: 55.3 µM (inactive)
HCT-116
  GI50: 41.3 µM (inactive)
MDA-MB-435
  GI50: 46.2 µM (inactive)
NCI-H226
  GI50: 27.7 µM (inactive)
CAKI-1
  GI50: 19.8 µM (inactive)
BT-549
  GI50: 59.4 µM (inactive)
TK-10
  GI50: 44.8 µM (inactive)
U-251
  GI50: > 100 µM (inactive)
DU-145
  GI50: 76.9 µM (inactive)
M14
  GI50: 35.6 µM (inactive)
EKVX
  GI50: 81.1 µM (inactive)
SN12C
  GI50: > 100 µM (inactive)
SR
  GI50: 49.1 µM (inactive)
A549
  GI50: 13.4 µM (inactive)
OVCAR-4
  GI50: 33.2 µM (inactive)
LOX IMVI
  GI50: 48.1 µM (inactive)
MDA-MB-231
  GI50: 70.6 µM (inactive)
K562
  GI50: 28.6 µM (inactive)
OVCAR-5
  GI50: > 100 µM (inactive)
SK-MEL-5
  GI50: 27.4 µM (inactive)
HOP-62
  GI50: 47.4 µM (inactive)
UO-31
  GI50: 0.0412 µM (active)
SNB-19
  GI50: > 100 µM (inactive)
SF-539
  GI50: 50.5 µM (inactive)
SK-OV-3
  GI50: 28.1 µM (inactive)
HCC 2998
  GI50: 80.9 µM (inactive)
UACC-62
  GI50: 28.8 µM (inactive)
HCT-15
  GI50: 28.2 µM
SK-MEL-28
  GI50: 67.9 µM (inactive)
MCF7
  GI50: 57.1 µM (inactive)
KM12
  GI50: 16.4 µM (inactive)
MOLT-4
  GI50: 95.7 µM (inactive)
UACC-257
  GI50: 64.7 µM (inactive)
OVCAR-3
  GI50: 54.1 µM (inactive)
CCRF-CEM
  GI50: 72.4 µM (inactive)
MDA-N
  GI50: 47.5 µM (inactive)
NCI-H460
  GI50: 5.16 µM (inactive)
RPMI-8226
  GI50: 23.4 µM (inactive)
HT-29
  GI50: 57.7 µM (inactive)
HL-60
  GI50: > 100 µM (inactive)
Malme-3M
  GI50: 72.4 µM (inactive)
SK-MEL-2
  GI50: 71.1 µM (inactive)

## O=C(O)CCCn1nnc2c(=O)[nH][nH]c(=O)c21
ACHN
  GI50: > 100 µM (inactive)
NCI-H23
  GI50: > 100 µM (inactive)
OVCAR-8
  GI50: > 100 µM (inactive)
HCT-116
  GI50: > 100 µM (inactive)
MDA-MB-435
  GI50: > 100 µM (inactive)
HOP-92
  GI50: > 100 µM (inactive)
CAKI-1
  GI50: > 100 µM (inactive)
BT-549
  GI50: > 100 µM (inactive)
COLO 205
  GI50: > 100 µM (inactive)
TK-10
  GI50: > 100 µM (inactive)
U-251
  GI50: > 100 µM (inactive)
PC-3
  GI50: > 100 µM (inactive)
DU-145
  GI50: > 100 µM (inactive)
M14
  GI50: > 100 µM (inactive)
EKVX
  GI50: > 100 µM (inactive)
SN12C
  GI50: > 100 µM (inactive)
SR
  GI50: > 100 µM (inactive)
A549
  GI50: > 100 µM (inactive)
OVCAR-4
  GI50: > 100 µM (inactive)
LOX IMVI
  GI50: > 100 µM (inactive)
MDA-MB-231
  GI50: > 100 µM (inactive)
K562
  GI50: > 100 µM (inactive)
OVCAR-5
  GI50: > 100 µM (inactive)
786-0
  GI50: > 100 µM (inactive)
SK-MEL-5
  GI50: > 100 µM (inactive)
HOP-62
  GI50: > 100 µM (inactive)
UO-31
  GI50: > 100 µM (inactive)
NCI/ADR-RES
  GI50: > 100 µM (inactive)
SNB-19
  GI50: > 100 µM (inactive)
HCC 2998
  GI50: > 100 µM (inactive)
HCT-15
  GI50: > 100 µM
SK-MEL-28
  GI50: > 100 µM (inactive)
MCF7
  GI50: > 100 µM (inactive)
KM12
  GI50: > 100 µM (inactive)
MOLT-4
  GI50: > 100 µM (inactive)
UACC-257
  GI50: > 100 µM (inactive)
OVCAR-3
  GI50: > 100 µM (inactive)
SF-295
  GI50: > 100 µM (inactive)
CCRF-CEM
  GI50: > 100 µM (inactive)
MDA-N
  GI50: > 100 µM (inactive)
NCI-H460
  GI50: > 100 µM (inactive)
RPMI-8226
  GI50: > 100 µM (inactive)
HT-29
  GI50: > 100 µM (inactive)
HL-60
  GI50: > 100 µM (inactive)
Malme-3M
  GI50: > 100 µM (inactive)
SK-MEL-2
  GI50: > 100 µM (inactive)
